For assay [1], the system named is PC-3 cells. The assay is described as follows: lamellipodia formation in PC-3 cells. It counts as cell-based, human. The settings on record: 30 μM.
Assay [2] has as its system HT29 cells. The assay can be described thus: lamellipodia formation in colon cancer HT29 cells. The settings on record: for inhibition of 14:0 LPA-induced lamellipodia formation / inhibition of 1% FBS-induced lamellipodia formation / inhibition of 10% FBS-induced lamellipodia formation: HT29. Type of assay: cell-based.
Assay [3] relates to DU145 cells. The assay is described as follows: focal adhesion in DU145 cells. Type of assay: cell-based, human. Conditions: FIG. 55.
Assay [4] relates to HT29 cells. The assay is described as follows: calcium mobilization assay in colon cancer HT29 cells. It counts as cell-based. Conditions: HT29 cells (only express LPA2), FIGS. 21-22. The protocol: The procedures for these calcium mobilization assays are as followed: OVCAR3 cells and PC-3 cells were cultured in RPMI 1640 medium with 10% FBS (fetal bovine serum). HT29 cells were cultured in DMEM (high glucose) medium with 10% FBS. All cells were cultured at about 37° C. in a humidified atmosphere with 5% CO2. After starvation in serum-free medium for about 12-24 hours, cells were harvested and loaded with about 1 μM of Indo-1 AM in serum-free medium for about 45 min at 37° C. Cells were washed in PBS and resuspended at 2×10^6 cells/ml in a [Ca^2+]i assay buffer (Sodium chloride, NaCl, about 140 mM, potassium chloride, KCl, about 2 mM, magnesium chloride, MgCl2, about 1 mM, calcium chloride, CaCl2, about 2 mM, in about 25 mM HEPES buffer at pH 7.4 with about 10 mM of glucose). Cytoplasmic [Ca^2+]i was determined at an excitation wavelength of about 331 nm and an emission wavelength of 410 nm using a fluorescence spectrophotometer (Hitachi, F-4000). Approximately 3×10^6 cells were used for [Ca^2+]l determination in a stirred quartz cuvette kept at about 37° C. OMPT or 18:1 LPA was dissolved in about 0.1% BSA/PBS solution and applied immediately to the cells. To test other LPA derivatives of the invention, cells were exposed to the derivatives for about 3 minutes or for a period of various times in time course related experiments before a LPA agonist, such as 18:1 LPA, OMPT, or other LPAs was applied into the cuvette.
The concentration of calcium mobilization giving the half-maximal response (EC50) was obtained from the concentration-response curve fitted to a sigmoidal logistic equation, with the maximal calcium response set to 100% using the GraphPad Prism. Maximal response value is expressed as mean +/−s.e.m. EC50 value is expressed with 95% confidence.

In assay [5] the test system is DU145 cells. The assay can be described thus: cell migration of DU145 cells. Type of assay: cell-based, human.
Assay [6] concerns DU145 cells. The assay can be described thus: calcium mobilization assay in androgen insensitive prostate cancer DU145 cells. It counts as cell-based, human.
In assay [7] the test system is HT29 cells. The assay is described as follows: cell growth (cell viability) in HT29 cells. Type of assay: cell-based.
In assay [8] the test system is PC-3 cells. The assay is described as follows: focal adhesion in PC-3 cells. Type of assay: cell-based, human. Conditions: FIG. 56.
Assay [9] deals with DU145 cells. The assay can be described thus: cell growth (cell viability) in DU145 cells. Type of assay: cell-based, human.
Assay [10] deals with PC-3 cells. The assay can be described thus: cell growth (cell viability) in PC-3 cells. Conditions: for inhibition of cell growth (cell viability): PC-3. Type of assay: cell-based, human.
The target of a further assay is T1, LPA3 receptor (Homo sapiens, UniProt Q9UBY5).
T1 sequence (Q9UBY5 1-353): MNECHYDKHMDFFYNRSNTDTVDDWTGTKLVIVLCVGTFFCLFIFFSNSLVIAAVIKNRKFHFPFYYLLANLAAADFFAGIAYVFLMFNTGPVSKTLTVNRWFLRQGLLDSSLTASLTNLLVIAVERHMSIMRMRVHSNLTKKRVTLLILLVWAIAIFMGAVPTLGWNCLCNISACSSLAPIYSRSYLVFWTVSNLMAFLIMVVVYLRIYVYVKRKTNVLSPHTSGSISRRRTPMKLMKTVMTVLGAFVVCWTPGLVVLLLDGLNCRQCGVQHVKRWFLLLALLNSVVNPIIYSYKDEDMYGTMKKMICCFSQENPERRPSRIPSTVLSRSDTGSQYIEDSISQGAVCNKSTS
The assay can be described thus: HA-Erk1 phosphorylation in HEK 293 T cells transfected with LPA3. Details: expressed in transfected cells. Conditions: LPA3 transfected HEK 293 T; 0.01, 0.1, or 1 μM. It counts as cell-based. From the text:
(§1) We have also tested kinase activation by the LPA3 receptor subtype using OMPT as a tool. We determined whether activation of the LPA3 receptor by OMPT can be linked to ERK activation (related to MAP kinase signaling pathway) in mammalian cells, HEK 293 T cells, by co-transfecting hemagglutinin (HA)-tagged Erk1 (HA-Erk1) with either a control vector or an expression vector having LPA1, LPA2, or LPA3. […] There is no phosphorylation of HA-Erk1 at lower concentration of LPA or OMPT in the absence of LPA receptors. […] Thus, the data confirmed that OMPT, an LPA derivative, is a selective agonist for LPA3 receptor subtype, capable of inducing MAPK activation.

The next assay has as its system LNCaP cells. The assay can be described thus: calcium mobilization in androgen sensitive prostate cancer LNCaP cells. It counts as cell-based.
The target in another assay is LPA2 receptor (Homo sapiens, UniProt Q9HBW0). The assay can be described thus: HA-Erk1 phosphorylation in HEK 293 T cells transfected with LPA2. Type of assay: cell-based. Details: expressed in transfected cells. Conditions: LPA2 transfected HEK 293 T; 0.01, 0.1, or 1 μM.
Sequence of LPA2 receptor (Q9HBW0 whole entry): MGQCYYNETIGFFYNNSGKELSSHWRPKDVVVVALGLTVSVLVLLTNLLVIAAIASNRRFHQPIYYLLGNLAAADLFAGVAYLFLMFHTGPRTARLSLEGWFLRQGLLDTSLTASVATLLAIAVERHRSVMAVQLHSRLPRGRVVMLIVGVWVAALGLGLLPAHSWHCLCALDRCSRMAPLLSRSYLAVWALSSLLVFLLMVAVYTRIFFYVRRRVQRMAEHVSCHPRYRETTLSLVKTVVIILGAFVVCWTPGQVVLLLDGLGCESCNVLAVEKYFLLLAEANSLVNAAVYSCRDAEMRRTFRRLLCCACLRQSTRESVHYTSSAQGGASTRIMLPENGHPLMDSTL
Description: as §1

In the next assay the test system is interleukin-8 (IL-8). The assay can be described thus: IL-8 transcription and secretion. Type of assay: cell-based, human. The settings on record: PC-3 cells.
Another assay has as its target LPA1 receptor (Homo sapiens, UniProt Q92633). The assay is described as follows: HA-Erk1 phosphorylation in HEK 293 T cells transfected with LPA1. It counts as cell-based. Also on record: FLAG; expressed in transfected cells; host or cells: HEK 293 T cells. Conditions: LPA1 transfected HEK 293 T; 0.01, 0.1, or 1 μM.
Description: as §1

“Also recorded” adds a separate entry of the source.

Sequence of LPA1 receptor (Q92633 whole entry): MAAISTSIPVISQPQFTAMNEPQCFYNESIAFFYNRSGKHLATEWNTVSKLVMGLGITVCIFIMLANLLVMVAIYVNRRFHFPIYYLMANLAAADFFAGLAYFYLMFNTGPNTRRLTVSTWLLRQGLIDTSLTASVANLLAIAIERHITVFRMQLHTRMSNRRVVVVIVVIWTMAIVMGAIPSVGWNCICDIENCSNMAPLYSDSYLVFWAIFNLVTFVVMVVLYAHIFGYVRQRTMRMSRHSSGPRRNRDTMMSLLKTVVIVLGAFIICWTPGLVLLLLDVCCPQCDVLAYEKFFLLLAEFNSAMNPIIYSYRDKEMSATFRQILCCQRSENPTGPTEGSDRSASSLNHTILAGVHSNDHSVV

As for `CCCCCCCCCCCCCCCCCC(=O)OC[C@@H](O)COP(=O)(O)OCC(O)CO` (mixture of isomers) [18:0 LPG, 1-stearoyl-2-hydroxy-sn-glycero-3-[phospho-rac-(1-glycerol)]], in the assay on PC-3 cells [1] (PC-3, serum-free, FIGS. 38-40), the “effect on spontaneously activated lamellipodia” value was “inhibit spontaneously activated lamellipodia”. For the same compound, the “inhibition of 18:1 LPA-induced lamellipodia formation” value in the assay with PC-3 cells [1] (PC-3, FIGS. 42-44) is “inhibition of 18:1 LPA-induced LPA2 receptor mediated lamellipodia formation”. In addition, the inhibition of lamellipodia entry with HT29 cells [2] (HT29, serum-free medium, 10 and 30 μM, FIGS. 24-25) is reported as “inhibits lamellipodia in HT29 cells in a concentration dependent manner”. Moreover, the “inhibition of 14:0 LPA-induced lamellipodia formation” value with HT29 cells [2] (10 μM, FIG. 27) was “inhibition of 14:0 LPA-induced LPA2 receptor mediated lamellipodia formation”; with HT29 cells [2] (30 μM, FIG. 28) it was “inhibition of 14:0 LPA-induced LPA2 receptor mediated lamellipodia formation”. Besides, the “inhibition of 1% FBS-induced lamellipodia formation” value in the assay with HT29 cells [2] (10 μM, FIG. 30) is on record as “inhibition of 1% FBS-induced LPA2 receptor mediated lamellipodia formation”; with HT29 cells [2] (30 μM, FIG. 31) it was “inhibition of 1% FBS-induced LPA2 receptor mediated lamellipodia formation”. The “inhibition of 10% FBS-induced lamellipodia formation” value in the assay with HT29 cells [2] (10 μM, FIG. 33) is recorded as “no inhibition”; in the assay with HT29 cells [2] (30 μM, FIG. 34), “no inhibition”. Besides, the “reduction of focal adhesion” value in the assay on DU145 cells [3] and in the assay on PC-3 cells [8] was “reduce focal adhesion” in each case. Also, in the assay on HT29 cells [4], the “inhibition of (18:1) LPA-induced calcium mobilization” value is recorded as “inhibited LPA-induced calcium mobilization; also recorded: effective inhibitors/antagonists”. Besides, in the assay with DU145 cells [5], the “reduction of cell migration” value is “could reduce cell migration”. In the assay on DU145 cells [6], the “inhibition of 14:0 LPA-induced calcium mobilization” value was “inhibited calcium mobilization”. For the same compound, the “inhibition of cell growth (cell viability)” value is “inhibition of cell growth (cell viability) at high concentrations” with HT29 cells [7] (FBS (1%), FIG. 36); “but not in the presence of high concentrations of FBS (10%)” in the assay on HT29 cells [7] (FBS (10%), FIG. 36); “inhibition of cell growth (cell viability) at high concentrations” in the assay on HT29 cells [7] (in the presence of 10 μM of 14:0 LPA, FIG. 35); “inhibition of cell growth (cell viability) at high concentrations” in the assay on PC-3 cells [10] (in the presence of 10 μM of 18:1 LPA, FIGS. 45-47); “inhibition of cell growth (cell viability) at high concentrations” with PC-3 cells [10] (without LPA, FIGS. 46-47). In addition, the “reduction of cell viability / cell growth” value with DU145 cells [9] and in the assay on PC-3 cells [10] (PC-3 cells) was “reduced cell viability” throughout.
Turning to “lysophosphatidic acid [LPA, reference compound]”, the HA-Erk1 phosphorylation entry on LPA3 receptor, on LPA2 receptor and on LPA1 receptor was “stimulates phosphorylation of HA-Erk1 in a dose-dependent manner” throughout. Moreover, the calcium mobilization entry in the assay with LNCaP cells was “does not induce the increase of intracellular calcium concentration”. The “IL-8 transcription and secretion” value in the assay on interleukin-8 (IL-8) is “increases interleukin-8 (IL-8) transcription and stimulates IL-8 secretion”.

Source of the values: patent publication US20080071116A1, “Modulators of Lysophosphatidic Acid (Lpa) Signaling and the Use Thereof” (THE BOARD OF REGENTS OF THE UNIVERSITY OF TEXAS SYSTEM, priority 2004, published 2008).
